Assay results as given in patent US20160038448A1, “THE INHIBITION OF THE TOXIC EFFECTS OF ISLET AMYLOID FORMATION BY FLURBIPROFEN AND FLURBIPROFEN DERIVATIVES” (The Research Foundation for the State University of New York, priority 2013, published 2016).
Changes are numbered by the printed parent chain. “Also recorded” adds a separate entry of the source. Values belong to the molecule of their own block, whether it stands above or below them.

Columns and labels:
[1] = biological target: T1, human IAPP (Homo sapiens, UniProt P10997); test: Fluorescence detected thioflavin-T assay of the time course of amyloid formation; format: biochemical
T1 construct: Mature, fully processed, Amylin is 37 residues in length, contains a disulfide bond between residues 2 and 7; made in house; host or cells: chemical solid-phase peptide synthesis (Fmoc), no expression host
T1 sequence (P10997 34-70 limits assumed): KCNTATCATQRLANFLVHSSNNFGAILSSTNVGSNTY
Description: Peptides were first dissolved in 100% hexafluoroisopropanol (HFIP) at a concentration 1.6 mM and then filtered to remove any preformed amyloid aggregates. For thioflavin-T fluorescence assays, aliquots were lyophilized and redissolved in pH 7.4, 20 mM Tris-HCl buffer at the desired concentration. Aspirin and Ketoprofen were prepared in 100% dimethyl sulfoxide (DMSO).
Solutions were prepared by adding pH 7.4, 20 mM Tris buffer and thioflavin-T to lyophilized dry peptides for a final peptide concentration of […]. For the studies of Aspirin and Ketoprofen, 0.25% DMSO was present in the solution. Measurements were made at 25° C. using a Beckman Coulter DTX880 plate reader without stirring. An excitation filter of 430 nm and an emission filter of 485 nm were used. To test disaggregate activity of Aspirin, peptide was first incubated in low-binding 96-wells plate and monitored by plate reader to ensure the formation of amyloid fibrils.
A mixture of flurbiprofen (1-20 parts) and human IAPP (1 part) was monitored by fluorescence detected thioflavin-T assays. The assays monitored the time course of amyloid formation (amount vs time) in the presence and absence of flurbiprofen.
A mixture of OH-flurbiprofen and human IAPP were monitored by fluorescence detected thioflavin-T assays. Three different concentrations (1:1 ratio, 1:10 ratio and 1:20 ratio of IAPP to OH-flurbiprofen) were tested against human IAPP without any added OH-flurbiprofen. The assays monitored the time course of amyloid formation (amount vs time) in the presence and absence of a flurbiprofen derivative.
Three different mixtures of NSAIDs (20 parts) and human IAPP (1 parts) were compared to each other and human IAPP alone by fluorescence detected thioflavin-T assays. The assays monitored the time course of amyloid formation (amount vs time) in the presence and absence of aspirin, naproxen and flurbiprofen.

[2] = tested on: rat INS-1 beta-cells; test: AlamarBlue cell viability of beta-cells given aliquots of the IAPP amyloid time course; format: cell-based; conditions: for presence and toxic effects of intermediates of amyloid formation: human IAPP with compound
Description: FIG. 5. […] (A) A thioflavin-T monitored time course of amyloid formation in the presence and absence of flurbiprofen. […] 20 mM Tris-HCl buffer with 0.25% DMSO was used as the control.
The presence of toxic intermediates is reduced when amyloid formation is accelerated by use of flurbiprofen or a flurbiprofen derivative. A thioflavin-T monitored time course of amyloid formation by human IAPP was conducted in the presence and absence of flurbiprofen. Aliquots were removed at various time points and applied to rat INS-1 beta-cells; at thirty minutes, at 12 hours, at 48 hours. Cell viability as judged by AlamarBlue assays. 20 mM Tris-HCl buffer with 0.25% DMSO was used as the control.

[3] = biological target: T1, human IAPP; test: One and two dimensional IR spectroscopy of fibers formed with flurbiprofen; conditions: IAPP:flurbiprofen 1:20; 0.5 mm human IAPP and 10 mM flurbiprofen
Description: One and two dimensional infrared (IR) spectroscopy was used to confirm the presence of beta-sheet structure. Amyloid is rich in beta-sheet structure. IR spectra were recorded of a mixture of […] human IAPP and 10 mM flurbiprofen.

[4] = biological target: T1, human IAPP; test: Seeding experiments monitored by thioflavin-T; format: biochemical; conditions: 10% seeds by mass from 1:20 IAPP:flurbiprofen mixture
Description: Seeding experiments were conducted using the products of the experiment conducted with the mixture of flurbiprofen (20 parts) and human IAPP. Seeding refers to the addition of a small […] of pre-formed amyloid fibers to an initially unaggerated solution of polypeptide. Addition of the amyloid fibers leads to a by passing of the lag phase. […] 10% seeds, by mass, were added to unaggerated human IAPP and amyloid formation monitored by fluorescence detected thioflavin-T assays.

[5] = NMR spectra and pulse field gradient NMR diffusion (aggregation of the compound); format: physicochemical
Description: Flurbiprofen was dissolved at 32 micro molar and at 640 micromolar and Nuclear Magnetic Resonance (NMR) spectra were recorded.
A sample of 640 micromolar Flurbiprofen was prepared and pulse field gradient NMR experiments were conducted to determine the diffusion coefficient of the compound. The diffusion coefficient is directly related to the hydrodynamic radius of the compound. The NMR intensity decay curve was monitored for the methyl group NMR signal. The best fit to the data yields a hydrodynamic radius of 3.9 Å.

[6] = biological target: T2, I26P human IAPP point mutant (Homo sapiens, UniProt P10997, I59P); test: Thioflavin-T assay and TEM with non-amyloidogenic point mutant; format: biochemical; conditions: 20 fold excess of Flurbiprofen; vesicles as control experiment
T2 construct: Mature, fully processed, Amylin is 37 residues in length, contains a disulfide bond between residues 2 and 7
T2 sequence (P10997 34-70 I59P): T1 sequence (P10997 34-70 limits assumed) with I26P
Description: The […] human IAPP point mutant was incubated with Flurbiprofen (20 fold excess of Flurbiprofen) and the mixture was monitored by fluorescence detected thioflavin-T assays. […] Transmission electron microscopy was used to confirm the absence of amyloid. The […] human IAPP point mutant was incubated with 100 nm vesicles composed of 100% anionic lipids as a control experiment. The mixture was monitored by fluorescence detected thioflavin-T assays. […] Transmission electron microscopy was used to confirm the presence of amyloid.

[7] = biological target: T3, A-beta(1-40) (Homo sapiens, UniProt P05067); test: Thioflavin-T assay of A-beta(1-40) amyloid formation; format: biochemical; conditions: flurbiprofen 20 parts, A-beta(1-40) 1 part
T3 construct: A mixture of flurbiprofen (20 parts) and A-beta(1-40) (1 part)
T3 sequence (P05067 672-711): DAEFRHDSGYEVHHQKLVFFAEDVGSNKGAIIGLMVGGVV
Text: A mixture of flurbiprofen (20 parts) and A-beta(1-40) (1 part) was monitored by fluorescence detected thioflavin-T assays. The assays monitored the time course of amyloid formation (amount vs time) in the presence and absence of flurbiprofen.

[8] = biological target: T4, 3XL-IAPP mutant (F15L, F23L, Y37L human IAPP) (Homo sapiens, UniProt P10997, F48L/F56L/Y70L); test: Thioflavin-T assay of mutant human IAPP amyloid formation (3XL); format: biochemical; conditions: 1:20 mixture of mutant with flurbiprofen
T4 construct: Mature, fully processed, Amylin is 37 residues in length, contains a disulfide bond between residues 2 and 7
T4 sequence (P10997 34-70 F48L/F56L/Y70L): T1 sequence (P10997 34-70 limits assumed) with F15L, F23L, Y37L
Text: (§1) A mixture of flurbiprofen (20 parts) and human IAPP (1 part) was monitored by fluorescence detected thioflavin-T assays. The assays monitored the time course of amyloid formation (amount vs time) in the presence and absence of flurbiprofen. The effect of flurbiprofen in wild-type (WT) human IAPP, and in two mutants of human IAPP was monitored. In one mutant, all of the aromatic amino acids in human IAPP were replaced by […] human IAPP was examined. A second mutant in which […] human IAPP) was also tested.

[9] = tested on: 3XL-IAPP mutant (F15L, F23L, Y37L human IAPP); test: as above; format: biochemical; conditions: WT human IAPP and mutant IAPP compared
Text: as §1

[10] = biological target: T5, H18Q human IAPP (Homo sapiens, UniProt P10997, H51Q); test: Thioflavin-T assay of mutant human IAPP amyloid formation (H18Q); format: biochemical; conditions: 1:20 mixture of mutant with flurbiprofen
T5 construct: Mature, fully processed, Amylin is 37 residues in length, contains a disulfide bond between residues 2 and 7
T5 sequence (P10997 34-70 H51Q): T1 sequence (P10997 34-70 limits assumed) with H18Q
Text: as §1

[11] = tested on: human IAPP transgenic mouse islets; test: Amyloid formation induced in human IAPP transgenic mouse islets; format: cell-based; conditions: example in present tense
Text: Amyloid formation is induced in human IAPP transgenic mouse islets in the presence and absence of flurbiprofen or a flurbiprofen derivative.

[12] = tested on: human islet cell transplants; test: Mice transplanted with human islet cell transplants; format: in vivo, mouse; conditions: example in present tense
Description: Mice transplanted with human islet cell transplants are treated with flurbiprofen or a flurbiprofen derivative.

[13] = biological target: T6, human IAPP (amylin) (Homo sapiens, UniProt P10997); test: Transmission electron microscopy of amyloid fibrils; format: biochemical; conditions: 20-fold excess of NSAID over human IAPP, end of kinetic experiment
T6 construct: Mature, fully processed, Amylin is 37 residues in length, contains a disulfide bond between residues 2 and 7; made in house; host or cells: chemical solid-phase peptide synthesis (Fmoc), no expression host
T6 sequence (P10997 34-70 limits assumed): T1 sequence (P10997 34-70 limits assumed)
Description: TEM was performed at the Life Science Microscopy Center at Stony Brook University. Aliquots were removed from the same solutions that were used for the fluorescence measurements. 5 μL of peptide solution was placed on carbon-coated Formvar 300 mesh copper grid for one minute and then negatively stained with saturated uranyl acetate for another one minute.

[14] = biological target: T7, human amylin (Homo sapiens, UniProt P10997); test: Right angle light scattering assay (RALS) without thioflavin-T; format: biochemical; conditions: 20-fold excess of aspirin (320 μM), amylin 16 μM, no thioflavin-T
T7 construct: Mature, fully processed, Amylin is 37 residues in length, contains a disulfide bond between residues 2 and 7; made in house; host or cells: chemical solid-phase peptide synthesis (Fmoc), no expression host
T7 sequence (P10997 34-70 limits assumed): T1 sequence (P10997 34-70 limits assumed)
Description: Solutions were prepared by adding pH 7.4, 20 mM Tris buffer without thioflavin-T to lyophilized dry peptides for a final peptide concentration of 16 […] used an excitation and emission wavelength of 500 nm.

[15] = biological target: T8, pre-formed human amylin amyloid fibrils (Homo sapiens, UniProt P10997); test: Disaggregation of pre-formed amylin amyloid fibrils (thioflavin-T and TEM); format: biochemical; conditions: 20-fold excess added after amyloid formation was complete, up to 48 hours
T8 construct: Mature, fully processed, Amylin is 37 residues in length, contains a disulfide bond between residues 2 and 7; made in house; host or cells: chemical solid-phase peptide synthesis (Fmoc), no expression host
T8 sequence (P10997 34-70 limits assumed): T1 sequence (P10997 34-70 limits assumed)
Description: Solutions were prepared by adding pH 7.4, 20 mM Tris buffer and thioflavin-T to lyophilized dry peptides for a final peptide concentration of 16 M. For the studies of Aspirin and Ketoprofen, 0.25% DMSO was present in the solution. Measurements were made at 25° C. using a Beckman Coulter DTX880 plate reader without stirring. An excitation filter of 430 nm and an emission filter of 485 nm were used.

SMILES: CC(C(=O)O)c1ccc(-c2ccccc2)c(F)c1 (racemic) [Flurbiprofen, (RS)-2-(2-fluorobiphenyl-4-yl)propanoic acid]
- effect on human IAPP amyloid formation (thioflavin-T time course) ([1]; 1:1 ratio of human IAPP and compound): showed acceleration of amyloid formation
- effect on human IAPP amyloid formation (thioflavin-T time course) ([1]; 20 to 1 ratio of compound to human IAPP): strongest effect of accelerating human IAPP amyloid formation
- effect on human IAPP amyloid formation (thioflavin-T time course) ([1]; 20 to 1 ratio of compound to human IAPP, listed as Flurbiprofen racemate): accelerated islet amyloid formation
- effect on human IAPP amyloid formation (thioflavin-T time course) ([1]; 20 to 1 ratio of compound to human IAPP, listed as racemic mixture): equally effective
- effect on human IAPP amyloid formation (thioflavin-T time course) ([1]; IAPP:compound ratios 1:1 to 1:20, pH 7.4, 20 mM Tris, 25° C.): accelerated islet amyloid formation
- protection of β-cells against IAPP induced toxicity (cell viability, AlamarBlue) ([2]; aliquots at thirty minutes, 12 hours, 48 hours of IAPP time course with and without flurbiprofen): protects β-cells against IAPP induced toxicity
- presence and toxic effects of intermediates of amyloid formation [2]: reduced the presence and toxic effects of intermediates of amyloid formation in a dose dependent fashion
- presence and toxic effects of intermediates of amyloid formation ([2]; listed as Flurbiprofen racemate): reduced the presence and toxic effects of intermediates of amyloid formation
- presence and toxic effects of intermediates of amyloid formation ([2]; listed as flurbiprofen): reduced
- β-structure of flurbiprofen induced aggregates (IR) [3]: rich in β-structure
- seeding of human IAPP amyloid formation by fibers formed with flurbiprofen [4]: extremely effective at seeding amyloid formation by human IAPP
- aggregation state of the compound (NMR peak positions and line widths) ([5]; 32 and 640 micro molar samples): independent of the concentration of the compound; also recorded: did not aggregate; also recorded: monomeric
- hydrodynamic radius (PFG-NMR) ([5]; 640 micromolar, methyl resonance decay curve): 3.9 Å
- induction of amyloid formation by I26P-IAPP (thioflavin-T, TEM) [6]: No increase in fluorescence is detected; also recorded: did not induced amyloid formation; also recorded: does not induce the non-amyloidogenic point mutant I26P-IAPP to form amyloid fibers
- effect on A-beta(1-40) amyloid formation kinetics [7]: did not influence the kinetics of amyloid formation by A-beta(1-40); also recorded: does not accelerate amyloid formation by the Aβ1-40 peptide
- effect on amyloid formation by 3XL-IAPP mutant [8]: had the same effect; also recorded: accelerates amyloid formation
- acceleration of amyloid formation and reduction of toxic effects of intermediates, WT human IAPP versus mutant IAPP [9]: about equally
- effect on amyloid formation by H18Q-IAPP mutant [10]: accelerates amyloid formation
- effect on amyloid formation by H18Q-IAPP mutant ([10]; listed as flurbiprofen): effected the mutant the same way as it did the wild type
- toxic effects of amyloid formation in islets [11]: reduces the toxic effects of amyloid formation
- survival of islet cell transplants [12]: enhances the survival of the islet cell transplants

- amyloid fibrils by TEM in presence of NSAID [13]: no changes in amyloid formation
SMILES: CC(=O)Oc1ccccc1C(=O)O [Aspirin]
- inhibition of amyloid formation by human IAPP (amylin) ([1]; 20 to 1 ratio of NSAID to human IAPP, pH 7.4, 25° C.): do not inhibit amylin amyloid formation; also recorded: no inhibition of amyloid; also recorded: does not inhibit amyloid formation by human amylin
- final thioflavin-T intensity ([1]; amylin 16 μM, aspirin up to 20-fold excess, pH 7.4, 25° C., 0.25% DMSO): no detectable effect on the final thioflavin-T intensity
- rate of amyloid formation as judged by T50 ([1]; amylin 16 μM, aspirin up to a 20-fold excess, pH 7.4, 25° C.): no detectable effect on the rate of amyloid formation
- amyloid fibrils by TEM in presence of NSAID ([13]; listed as aspirin): Extensive matts of fibrils; also recorded: does not inhibit IAPP amyloid formation
- aggregation curves by right angle light scattering [14]: does not inhibit amyloid formation by human amylin
- disaggregation of pre-formed amylin amyloid fibrils [15]: unable to disassemble pre-formed amylin amyloid; also recorded: does not disaggregate pre-formed human amylin amyloid fibrils
- disaggregation of pre-formed amylin amyloid fibrils ([15]; listed as aspirin): does not disaggregate amylin amyloid; also recorded: no effect on the thioflavine-T signal
